# Numbers after ± are expanded uncertainties.
# Conditions: Liquid, ATR infrared spectroscopy
smiles,measurement,setting,value
O=C=O [carbon dioxide],vapor or sublimation pressure,295.45 K,6020 ± 490 kPa
same,vapor or sublimation pressure,297.05 K,6240 ± 500 kPa
same,vapor or sublimation pressure,299.05 K,6520 ± 530 kPa
same,vapor or sublimation pressure,302.65 K,7090 ± 570 kPa
same,vapor or sublimation pressure,303.25 K,7180 ± 580 kPa

# Reference: the NIST ThermoML archive (doi:10.1016/j.jct.2015.09.024)
